Measured values from patent publication US20050245606A1, “High-efficiency fullerene-based radical scavengers” (Nano-C, Inc., priority 2003, published 2005).

Assay: Scavenging of cigarette smoke radicals in decalin, read out by DHR 6G fluorescence
Type: biochemical
Experimental: Tests were conducted to study the effectiveness of methanofullerene derivatives against radicals present in cigarette smoke (predominantly peroxyl radical). The cigarette smoke was bubbled through a glass frit into a solvent (decalin) in which radical scavengers were dissolved. The smoke then exited this solvent and was passed through a second flask, in which a fluorescent probe that fluoresces upon oxidation by radicals was used (Dihydrorhodamine 6G (DHR 6G), purchased from Molecular Probes). The variation of fluorescent signal corresponds directly to the radical content of the cigarette smoke, and thus a measure of the reduction of radicals by the radical scavenger is measured. Signals were measured every 10 seconds.
Tests were conducted to study the sensitivity of the test apparatus in Example 1 to varying concentrations of Vitamin E as a radical scavenger to scavenge radicals present in cigarette smoke (predominantly peroxyl radical). The cigarette smoke was bubbled through a cylindrical, coarse glass frit into a solvent (decalin) in which radical scavengers were dissolved. The smoke then exited this solvent and was passed through a second flask, in which a fluorescent probe that fluoresces upon oxidation by radicals was used (Dihydrorhodamine 6G (DHR 6G), purchased from Molecular Probes). The variation of fluorescent signal corresponds directly to the radical content of the cigarette smoke, and thus a measure of the reduction of radicals by the radical scavenger is measured. Signals were measured every 10 seconds.

COC(=O)CCCC1(c2ccccc2)C23C=Cc4cc5c6c7c4C21c1c2c4c(cc8ccc9cc(c6c6c9c8c4c6c17)C5)CC2=C3 (stereo not drawn) [PCBM, [6,6]-phenyl C61-butyric acid methyl ester]
difference in fluorescence signal / radical scavenging efficiency versus Vitamin E (300 μM PCBM versus 300 μM Vitamin E): very large difference in radical scavenging efficiency | reduction of radicals by the radical scavenger (fluorescent signal of DHR 6G) (scavenger dissolved in decalin, comparison with Vitamin E under identical conditions, FIG. 6A): scavenges significantly more of the radicals present in the cigarette smoke than Vitamin E

Vitamin E [reference compound]
change of fluorescent signal on doubling the scavenger concentration (150 μM versus 300 μM in decalin, FIG. 6B): very small deflection
